Data reported in ChEMBL document CHEMBL1255428, “Characterization of UDP-glucose dehydrogenase and UDP-glucose pyrophosphorylase mutants of Proteus mirabilis: defectiveness in polymyxin B resistance, swarming, and virulence” (2010).
The source made the active and inactive calls. No cut-off for these calls is given here.

Key:
Proteus mirabilis [1] = test: Antimicrobial activity against Proteus mirabilis dU2 knockout mutant after 16 to 18 hrs by broth micro dilution assay; format: functional
Proteus mirabilis [2] = test: Antimicrobial activity against Proteus mirabilis dG1 knockout after 16 to 18 hrs by broth micro dilution assay; format: functional
Proteus mirabilis [3] = test: Antimicrobial activity against Proteus mirabilis dG1 knockout mutant transformed with pACYC184-galU after 16 to 18 hrs by broth micro dilution assay; format: functional
Proteus mirabilis [4] = test: Antimicrobial activity against Proteus mirabilis dU2 knockout mutant transformed with pACYC184-ugd after 16 to 18 hrs by broth micro dilution assay; format: functional
Proteus mirabilis [5] = test: Antimicrobial activity against wild type Proteus mirabilis N2 after 16 to 18 hrs by broth micro dilution assay; format: functional
Proteus mirabilis [6] = test: Induction of Ugd expression in wild type Proteus mirabilis N2 at 1 ug/ml by real-time RT-PCR analysis; format: functional, organism-based
Proteus mirabilis [7] = test: Induction of Ugd expression in Proteus mirabilis dA10 rppA knockout mutant at 1 ug/ml by real-time RT-PCR analysis; format: functional, organism-based
Proteus mirabilis [8] = test: Induction of Ugd expression in wild type Proteus mirabilis dA10c RppA-complemented strain at 1 ug/ml by real-time RT-PCR analysis; format: functional, organism-based

CCCCCCCCCCCCOS(=O)(=O)[O-].[Na+] [SODIUM LAURYL SULFATE]
MIC (Proteus mirabilis [1]): 500 µg/mL
MIC (Proteus mirabilis [2]): 500 µg/mL
MIC (Proteus mirabilis [3]): 2000 µg/mL
MIC (Proteus mirabilis [4]): 2000 µg/mL
MIC (Proteus mirabilis [5]): 2000 µg/mL

POLYMYXIN B
Activity (Proteus mirabilis [6]): Active
Activity (Proteus mirabilis [7]): Active
MIC (Proteus mirabilis [1]): 2 µg/mL
MIC (Proteus mirabilis [2]): 4 µg/mL
Activity (Proteus mirabilis [8]): inactive
